In patent US20260355165A1, “2,3,4,9-TETRAHYDRO-1H-PYRIDO[3,4-B]INDOLE DERIVATIVES AS ESTROGEN RECEPTOR MODULATORS FOR THE TREATMENT OF CANCER” (Olema Pharmaceuticals, Inc., priority 2022, published 2026):

Target: T1, estrogen receptor (Homo sapiens, UniProt P03372)
T1 construct: endogenous in cells; host or cells: ECC-1 cells
T1 sequence (P03372 1-595): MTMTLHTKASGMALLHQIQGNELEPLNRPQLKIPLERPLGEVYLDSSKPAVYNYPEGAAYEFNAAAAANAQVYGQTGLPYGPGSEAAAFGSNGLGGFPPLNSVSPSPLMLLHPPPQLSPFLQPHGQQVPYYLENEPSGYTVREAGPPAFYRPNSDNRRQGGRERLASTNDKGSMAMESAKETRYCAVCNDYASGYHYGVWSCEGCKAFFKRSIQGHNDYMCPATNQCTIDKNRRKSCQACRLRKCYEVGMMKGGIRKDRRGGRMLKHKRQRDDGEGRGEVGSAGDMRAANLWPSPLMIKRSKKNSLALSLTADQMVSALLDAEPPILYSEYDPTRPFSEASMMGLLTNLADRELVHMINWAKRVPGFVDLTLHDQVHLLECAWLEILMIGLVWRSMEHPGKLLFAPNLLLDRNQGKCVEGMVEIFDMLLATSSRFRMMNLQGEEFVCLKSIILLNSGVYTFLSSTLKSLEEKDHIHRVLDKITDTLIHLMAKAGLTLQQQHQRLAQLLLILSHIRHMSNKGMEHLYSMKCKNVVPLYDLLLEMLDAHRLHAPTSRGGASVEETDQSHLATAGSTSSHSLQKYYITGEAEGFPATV
Assay: AP assay (alkaline phosphatase activity in ECC-1 cells), agonist mode (absence of E2) and antagonist mode (presence of 500 pM E2)
Assay type: cell-based
Conditions: for Activity (estrogen receptor modulation, e.g., agonism and antagonism): 3 days, AP activity normalized to 500 pM E2 alone, agonist and antagonist mode combined
How it was run: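 Read-out is absorbance at 405 nm from p-nitrophenyl phosphate cleavage (40 min, 42 °C), expressed relative to 500 pM E2 alone. Compounds were applied to ECC-1 cells in hormone-depleted medium for 3 days, either alone (agonist) or alongside 500 pM E2 (antagonist).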

SMILES | Activity (estrogen receptor modulation, e.g., agonism and antagonism) | other results
C[C@@H]1Cc2c([nH]c3ccccc23)[C@@H](c2n[nH]c3cc(CN4CC5(COC5)C4)ccc23)N1CC(F)F [Compound I-39, 6-((3-((1S,3R)-2-(2,2-difluoroethyl)-3-methyl-2,3,4,9-tetrahydro-1H-pyrido[3,4-b]indol-1-yl)-1H-indazol-6-yl)methyl)-2-oxa-6-azaspiro[3.3]heptane] | ++ (estrogen receptor antagonism having (i) between 10% and 80% increase in the E2-normalized signal in the AP assay (agonist mode) and (ii) between 10% and 80% reduction in the E2-normalized signal in the AP assay (antagonist mode)) | 
C[C@@H]1Cc2c([nH]c3ccccc23)[C@@H](c2ccc3[nH]c(CN4CC(CF)C4)cc3c2)N1CC(F)(F)C(F)F [Compound I-109, (1R,3R)-1-[2-[[3-(fluoromethyl)azetidin-1-yl]methyl]-1H-indol-5-yl]-3-methyl-2-(2,2,3,3-tetrafluoropropyl)-1,3,4,9-tetrahydropyrido[3,4-b]indole] |  | IC50 (AP assay, antagonist mode, 500 pM E2, 3 days): < 398 nM; increase in E2-normalized signal in the AP assay (agonist mode) (agonist mode, absence of E2, 3 days): no more than 10%; reduction in the E2-normalized signal in the AP assay (antagonist mode) (antagonist mode, 500 pM E2, 3 days): ≥ 10%
C[C@@H]1Cc2c([nH]c3ccccc23)[C@@H](c2ccc3[nH]c(CN4CC(CF)C4)cc3c2)N1CC(F)(F)CO [Compound I-45, 2,2-difluoro-3-[(1R,3R)-1-[2-[[3-(fluoromethyl)azetidin-1-yl]methyl]-1H-indol-5-yl]-3-methyl-1,3,4,9-tetrahydropyrido[3,4-b]indol-2-yl]propan-1-ol] | +++ (estrogen receptor antagonism (i) with pIC50 greater than 7.5 and at least a 10% reduction in the E2-normalized signal in the AP assay (antagonist mode); and (ii) no more than 10% increase in E2-normalized signal in the AP assay (agonist mode)) | 
C[C@@H]1Cc2c([nH]c3ccccc23)[C@@H](c2ccc3c(c2)nc(CN2CC(CF)C2)[s+]3[O-])N1CC(C)(C)F (stereo partly drawn) [Compound I-104, 2-[[3-(fluoromethyl)azetidin-1-yl]methyl]-5-[(1R,3R)-2-(2-fluoro-2-methyl-propyl)-3-methyl-1,3,4,9-tetrahydropyrido[3,4-b]indol-1-yl]-1,3-benzothiazole 1-oxide] | + (estrogen receptor agonism having (i) at least 80% increase in the E2-normalized signal in the AP assay (agonist mode) and (ii) no more than 80% reduction in the E2-normalized signal in the AP assay (antagonist mode)) | 
C[C@@H]1Cc2c([nH]c3ccccc23)[C@@H](c2ccc3oc(CN4CC(CF)C4)cc3c2)N1CC(C)(C)F [Compound I-57, (1R,3R)-1-[2-[[3-(fluoromethyl)azetidin-1-yl]methyl]benzofuran-5-yl]-2-(2-fluoro-2-methyl-propyl)-3-methyl-1,3,4,9-tetrahydropyrido[3,4-b]indole] | +++ (estrogen receptor antagonism (i) with pIC50 greater than 7.5 and at least a 10% reduction in the E2-normalized signal in the AP assay (antagonist mode); and (ii) no more than 10% increase in E2-normalized signal in the AP assay (agonist mode)) | 
C[C@@H]1Cc2c([nH]c3ccccc23)[C@@H](c2ccc3[nH]c(CN4CC5(CC(O)C5)C4)cc3c2)N1CC(C)(C)F [Compound I-53, 2-[[5-[(1R,3R)-2-(2-fluoro-2-methyl-propyl)-3-methyl-1,3,4,9-tetrahydropyrido[3,4-b]indol-1-yl]-1H-indol-2-yl]methyl]-2-azaspiro[3.3]heptan-6-ol] | + (estrogen receptor agonism having (i) at least 80% increase in the E2-normalized signal in the AP assay (agonist mode) and (ii) no more than 80% reduction in the E2-normalized signal in the AP assay (antagonist mode)) | 
C[C@@H]1Cc2c([nH]c3ccccc23)[C@@H](c2ccc3[nH]c(CN4CC(CC#N)C4)cc3c2)N1CC(C)(C)F [Compound I-98, 2-[1-[[5-[(1R,3R)-2-(2-fluoro-2-methyl-propyl)-3-methyl-1,3,4,9-tetrahydropyrido[3,4-b]indol-1-yl]-1H-indol-2-yl]methyl]azetidin-3-yl]acetonitrile] | ++ (estrogen receptor antagonism having (i) between 10% and 80% increase in the E2-normalized signal in the AP assay (agonist mode) and (ii) between 10% and 80% reduction in the E2-normalized signal in the AP assay (antagonist mode)) | 
C[C@@H]1Cc2c([nH]c3ccccc23)[C@@H](c2cc3[nH]c(CNCCCF)cc3s2)N1CC(C)(C)F [Compound I-67, 3-fluoro-N-[[2-[(1S,3R)-2-(2-fluoro-2-methyl-propyl)-3-methyl-1,3,4,9-tetrahydropyrido[3,4-b]indol-1-yl]-4H-thieno[3,2-b]pyrrol-5-yl]methyl]propan-1-amine] | + (estrogen receptor agonism having (i) at least 80% increase in the E2-normalized signal in the AP assay (agonist mode) and (ii) no more than 80% reduction in the E2-normalized signal in the AP assay (antagonist mode)) | 
C[C@@H]1Cc2c([nH]c3ccccc23)[C@@H](c2ccc3cc(CN4CC(CF)C4)[nH]c3c2)N1CC(C)(C)F [Compound I-55, (1R,3R)-1-[2-[[3-(fluoromethyl)azetidin-1-yl]methyl]-1H-indol-6-yl]-2-(2-fluoro-2-methyl-propyl)-3-methyl-1,3,4,9-tetrahydropyrido[3,4-b]indole] | + (estrogen receptor agonism having (i) at least 80% increase in the E2-normalized signal in the AP assay (agonist mode) and (ii) no more than 80% reduction in the E2-normalized signal in the AP assay (antagonist mode)) | 
C[C@@H]1Cc2c([nH]c3ccccc23)[C@@H](c2ccc3sc(CN4CC(CF)C4)nc3c2)N1CC(C)(C)F [Compound I-103, 2-[[3-(fluoromethyl)azetidin-1-yl]methyl]-5-[(1R,3R)-2-(2-fluoro-2-methyl-propyl)-3-methyl-1,3,4,9-tetrahydropyrido[3,4-b]indol-1-yl]-1,3-benzothiazole] | + (estrogen receptor agonism having (i) at least 80% increase in the E2-normalized signal in the AP assay (agonist mode) and (ii) no more than 80% reduction in the E2-normalized signal in the AP assay (antagonist mode)) | 
CC1CN(Cc2ccc3c([C@@H]4c5[nH]c6ccccc6c5C[C@@H](C)N4CC(C)(C)F)n[nH]c3c2)C1 [Compound I-11, (1S,3R)-2-(2-fluoro-2-methyl-propyl)-3-methyl-1-[6-[(3-methylazetidin-1-yl)methyl]-1H-indazol-3-yl]-1,3,4,9-tetrahydropyrido[3,4-b]indole] | ++ (estrogen receptor antagonism having (i) between 10% and 80% increase in the E2-normalized signal in the AP assay (agonist mode) and (ii) between 10% and 80% reduction in the E2-normalized signal in the AP assay (antagonist mode)) | 
C[C@@H]1Cc2c([nH]c3ccccc23)[C@@H](c2n[nH]c3cc(CN4CC5(CC(O)C5)C4)ccc23)N1CC(C)(C)F [Compound I-31, 2-[[3-[(1S,3R)-2-(2-fluoro-2-methyl-propyl)-3-methyl-1,3,4,9-tetrahydropyrido[3,4-b]indol-1-yl]-1H-indazol-6-yl]methyl]-2-azaspiro[3.3]heptan-6-ol] | + (estrogen receptor agonism having (i) at least 80% increase in the E2-normalized signal in the AP assay (agonist mode) and (ii) no more than 80% reduction in the E2-normalized signal in the AP assay (antagonist mode)) | 
C[C@@H]1Cc2c([nH]c3ccccc23)[C@@H](c2cc(F)c3oc(CN4CC(CF)C4)nc3c2)N1CC(C)(C)F [Compound I-79, 7-fluoro-2-[[3-(fluoromethyl)azetidin-1-yl]methyl]-5-[(1R,3R)-2-(2-fluoro-2-methyl-propyl)-3-methyl-1,3,4,9-tetrahydropyrido[3,4-b]indol-1-yl]-1,3-benzoxazole] | + (estrogen receptor agonism having (i) at least 80% increase in the E2-normalized signal in the AP assay (agonist mode) and (ii) no more than 80% reduction in the E2-normalized signal in the AP assay (antagonist mode)) | 
C[C@@H]1Cc2c([nH]c3ccccc23)[C@@H](c2ccc3[nH]c(CN4CC[C@H](F)C4)cc3c2)N1CC(C)(C)F [Compound I-47, (1R,3R)-2-(2-fluoro-2-methyl-propyl)-1-[2-[[(3S)-3-fluoropyrrolidin-1-yl]methyl]-1H-indol-5-yl]-3-methyl-1,3,4,9-tetrahydropyrido[3,4-b]indole] | + (estrogen receptor agonism having (i) at least 80% increase in the E2-normalized signal in the AP assay (agonist mode) and (ii) no more than 80% reduction in the E2-normalized signal in the AP assay (antagonist mode)) | 
CC1CN(Cc2nc3cc([C@@H]4c5[nH]c6ccccc6c5C[C@@H](C)N4CC(C)(C)F)ccc3[nH]2)C1 [Compound I-71, (1R,3R)-2-(2-fluoro-2-methyl-propyl)-3-methyl-1-[2-[(3-methylazetidin-1-yl)methyl]-3H-benzimidazol-5-yl]-1,3,4,9-tetrahydropyrido[3,4-b]indole] | ++ (estrogen receptor antagonism having (i) between 10% and 80% increase in the E2-normalized signal in the AP assay (agonist mode) and (ii) between 10% and 80% reduction in the E2-normalized signal in the AP assay (antagonist mode)) | 
